Source: the NIST ThermoML archive (doi:10.1016/j.jct.2011.08.016)

Assay: xn = mol fraction of the nth substance listed
Details: Liquid, Vibrating tube method

CCCCCCCCCC [decane] + CCCCCCCC
Details	mass density [kg/m3]
343.12 K, 23000 kPa, x2 = 0.7736	693.03
343.12 K, 24000 kPa, x2 = 0.2801	707.17
343.12 K, 24000 kPa, x2 = 0.5314	700.89
343.12 K, 24000 kPa, x2 = 0.7736	693.84
343.12 K, 25000 kPa, x2 = 0.2801	707.92
343.12 K, 25000 kPa, x2 = 0.5314	701.69
343.12 K, 25000 kPa, x2 = 0.7736	694.61
343.13 K, 1000 kPa, x2 = 0.9623	664.48
343.13 K, 2000 kPa, x2 = 0.9623	665.59
343.13 K, 3000 kPa, x2 = 0.9623	666.77
343.13 K, 4000 kPa, x2 = 0.9623	667.86
343.13 K, 5000 kPa, x2 = 0.9623	668.95
343.13 K, 6000 kPa, x2 = 0.9623	670.06
343.13 K, 7000 kPa, x2 = 0.9623	671.17
343.13 K, 8000 kPa, x2 = 0.9623	672.27
343.13 K, 9000 kPa, x2 = 0.9623	673.35
343.13 K, 10000 kPa, x2 = 0.9623	674.41
343.13 K, 10990 kPa, x2 = 0.9623	675.48
343.13 K, 12000 kPa, x2 = 0.9623	676.54
343.13 K, 13000 kPa, x2 = 0.9623	677.56
343.13 K, 14000 kPa, x2 = 0.9623	678.58
343.13 K, 15000 kPa, x2 = 0.9623	679.6
343.13 K, 16000 kPa, x2 = 0.9623	680.56
343.13 K, 17000 kPa, x2 = 0.9623	681.54
343.13 K, 18000 kPa, x2 = 0.9623	682.46
343.13 K, 19000 kPa, x2 = 0.9623	683.41
343.13 K, 20000 kPa, x2 = 0.9623	684.31
343.13 K, 21000 kPa, x2 = 0.9623	685.19
343.13 K, 22000 kPa, x2 = 0.9623	686.05
343.13 K, 23000 kPa, x2 = 0.9623	686.9
343.13 K, 24000 kPa, x2 = 0.9623	687.72
343.13 K, 25000 kPa, x2 = 0.9623	688.5
353.08 K, 1000 kPa, x2 = 0.9623	656.17
353.08 K, 2000 kPa, x2 = 0.9623	657.39
353.08 K, 3000 kPa, x2 = 0.9623	658.62
353.08 K, 4000 kPa, x2 = 0.9623	659.85
353.08 K, 5000 kPa, x2 = 0.9623	660.99
353.08 K, 6000 kPa, x2 = 0.9623	662.16
353.08 K, 7000 kPa, x2 = 0.9623	663.38
353.08 K, 8000 kPa, x2 = 0.9623	664.55
353.08 K, 9000 kPa, x2 = 0.9623	665.71
353.08 K, 10000 kPa, x2 = 0.9623	666.85
353.08 K, 10990 kPa, x2 = 0.9623	667.94
353.08 K, 12000 kPa, x2 = 0.9623	669.1
353.08 K, 13000 kPa, x2 = 0.9623	670.16
353.08 K, 14000 kPa, x2 = 0.9623	671.22
353.08 K, 15000 kPa, x2 = 0.9623	672.32
353.08 K, 16000 kPa, x2 = 0.9623	673.37
353.08 K, 17000 kPa, x2 = 0.9623	674.4
353.08 K, 18000 kPa, x2 = 0.9623	675.38
353.08 K, 19000 kPa, x2 = 0.9623	676.37
353.08 K, 20000 kPa, x2 = 0.9623	677.3
353.08 K, 21000 kPa, x2 = 0.9623	678.26
353.08 K, 22000 kPa, x2 = 0.9623	679.19
353.08 K, 23000 kPa, x2 = 0.9623	680.04
353.08 K, 24000 kPa, x2 = 0.9623	680.91
353.08 K, 25000 kPa, x2 = 0.9623	681.75
353.12 K, 1000 kPa, x2 = 0.0616	683.44
353.12 K, 1000 kPa, x2 = 0.2801	678.06
353.12 K, 1000 kPa, x2 = 0.5314	670.91
353.12 K, 1000 kPa, x2 = 0.7736	663
353.12 K, 2000 kPa, x2 = 0.0616	684.54
353.12 K, 2000 kPa, x2 = 0.2801	679.14
353.12 K, 2000 kPa, x2 = 0.5314	672.1
353.12 K, 2000 kPa, x2 = 0.7736	664.25
353.12 K, 3000 kPa, x2 = 0.0616	685.62
353.12 K, 3000 kPa, x2 = 0.2801	680.24
353.12 K, 3000 kPa, x2 = 0.5314	673.23
353.12 K, 3000 kPa, x2 = 0.7736	665.41
353.12 K, 4000 kPa, x2 = 0.0616	686.69
353.12 K, 4000 kPa, x2 = 0.2801	681.31
353.12 K, 4000 kPa, x2 = 0.5314	674.37
353.12 K, 4000 kPa, x2 = 0.7736	666.6
353.12 K, 5000 kPa, x2 = 0.0616	687.76
353.12 K, 5000 kPa, x2 = 0.2801	682.4
353.12 K, 5000 kPa, x2 = 0.5314	675.52
353.12 K, 5000 kPa, x2 = 0.7736	667.77
353.12 K, 6000 kPa, x2 = 0.0616	688.82
353.12 K, 6000 kPa, x2 = 0.2801	683.48
353.12 K, 6000 kPa, x2 = 0.5314	676.65
353.12 K, 6000 kPa, x2 = 0.7736	668.95
353.12 K, 7000 kPa, x2 = 0.0616	689.85
353.12 K, 7000 kPa, x2 = 0.2801	684.52
353.12 K, 7000 kPa, x2 = 0.5314	677.77
353.12 K, 7000 kPa, x2 = 0.7736	670.08
353.12 K, 8000 kPa, x2 = 0.0616	690.88
353.12 K, 8000 kPa, x2 = 0.2801	685.57
353.12 K, 8000 kPa, x2 = 0.5314	678.86
353.12 K, 8000 kPa, x2 = 0.7736	671.21
353.12 K, 9000 kPa, x2 = 0.0616	691.9
353.12 K, 9000 kPa, x2 = 0.2801	686.58
353.12 K, 9000 kPa, x2 = 0.5314	679.93
353.12 K, 9000 kPa, x2 = 0.7736	672.31
353.12 K, 10000 kPa, x2 = 0.0616	692.88
